The values below come from ChEMBL document CHEMBL3396964, “SAH derived potent and selective EZH2 inhibitors” (Bioorg Med Chem Lett, 2015).

Active and inactive are the calls of the source. No cut-off for these calls is given here.

Experiment [1] concerns the target Histone-lysine N-methyltransferase 2A (Homo sapiens, UniProt Q03164). Nature of the experiment: Inhibition of MLL (unknown origin) by HMT assay.
Experiment [2] concerns the target T1, Histone-lysine N-methyltransferase KMT5C (Homo sapiens, UniProt Q86Y97). To be noted: 10 uM.
Description: Inhibition of SUV420H2 (unknown origin) at 10 uM by HMT assay
In experiment [3] the target is T2, N-lysine methyltransferase SMYD2 (Homo sapiens, UniProt Q9NRG4). Nature of the experiment: Inhibition of SMYD2 (unknown origin) at 10 uM by HMT assay.
T2 sequence (Q9NRG4 whole entry): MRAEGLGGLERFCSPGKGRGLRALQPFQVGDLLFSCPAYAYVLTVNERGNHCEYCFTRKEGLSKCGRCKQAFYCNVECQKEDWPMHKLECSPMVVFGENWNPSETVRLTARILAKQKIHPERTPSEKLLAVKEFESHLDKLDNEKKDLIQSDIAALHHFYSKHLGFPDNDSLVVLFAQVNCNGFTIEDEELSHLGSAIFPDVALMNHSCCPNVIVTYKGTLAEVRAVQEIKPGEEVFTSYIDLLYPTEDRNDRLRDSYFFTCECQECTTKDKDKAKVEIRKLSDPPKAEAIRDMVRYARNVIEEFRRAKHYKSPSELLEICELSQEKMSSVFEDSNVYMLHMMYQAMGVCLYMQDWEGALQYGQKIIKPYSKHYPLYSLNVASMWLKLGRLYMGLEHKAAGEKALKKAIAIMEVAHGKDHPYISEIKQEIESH
The target in experiment [4] is T2, N-lysine methyltransferase SMYD2. Nature of the experiment: Inhibition of SMYD2 (unknown origin) by HMT assay.
The target in experiment [5] is Histone-lysine N-methyltransferase SUV39H2 (Homo sapiens, UniProt Q9H5I1). Kind of experiment: Inhibition of SUV39H2 (unknown origin) at 10 uM by HMT assay.
Sequence of Histone-lysine N-methyltransferase SUV39H2 (Q9H5I1 whole entry): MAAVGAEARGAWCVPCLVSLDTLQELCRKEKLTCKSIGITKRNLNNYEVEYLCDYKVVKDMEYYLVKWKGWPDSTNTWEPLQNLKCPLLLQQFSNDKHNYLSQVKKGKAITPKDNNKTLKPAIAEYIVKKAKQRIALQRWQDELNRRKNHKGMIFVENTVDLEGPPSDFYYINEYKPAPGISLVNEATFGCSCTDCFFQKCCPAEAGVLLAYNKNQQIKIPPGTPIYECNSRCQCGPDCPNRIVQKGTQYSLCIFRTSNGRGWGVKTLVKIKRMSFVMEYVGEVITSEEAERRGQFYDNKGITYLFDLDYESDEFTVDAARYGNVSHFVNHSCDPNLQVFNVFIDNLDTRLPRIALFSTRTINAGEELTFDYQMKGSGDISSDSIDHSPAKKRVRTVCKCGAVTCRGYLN
The target in experiment [6] is T3, Histone-lysine N-methyltransferase EHMT2 (Homo sapiens, UniProt Q96KQ7).
T3 sequence (Q96KQ7 whole entry): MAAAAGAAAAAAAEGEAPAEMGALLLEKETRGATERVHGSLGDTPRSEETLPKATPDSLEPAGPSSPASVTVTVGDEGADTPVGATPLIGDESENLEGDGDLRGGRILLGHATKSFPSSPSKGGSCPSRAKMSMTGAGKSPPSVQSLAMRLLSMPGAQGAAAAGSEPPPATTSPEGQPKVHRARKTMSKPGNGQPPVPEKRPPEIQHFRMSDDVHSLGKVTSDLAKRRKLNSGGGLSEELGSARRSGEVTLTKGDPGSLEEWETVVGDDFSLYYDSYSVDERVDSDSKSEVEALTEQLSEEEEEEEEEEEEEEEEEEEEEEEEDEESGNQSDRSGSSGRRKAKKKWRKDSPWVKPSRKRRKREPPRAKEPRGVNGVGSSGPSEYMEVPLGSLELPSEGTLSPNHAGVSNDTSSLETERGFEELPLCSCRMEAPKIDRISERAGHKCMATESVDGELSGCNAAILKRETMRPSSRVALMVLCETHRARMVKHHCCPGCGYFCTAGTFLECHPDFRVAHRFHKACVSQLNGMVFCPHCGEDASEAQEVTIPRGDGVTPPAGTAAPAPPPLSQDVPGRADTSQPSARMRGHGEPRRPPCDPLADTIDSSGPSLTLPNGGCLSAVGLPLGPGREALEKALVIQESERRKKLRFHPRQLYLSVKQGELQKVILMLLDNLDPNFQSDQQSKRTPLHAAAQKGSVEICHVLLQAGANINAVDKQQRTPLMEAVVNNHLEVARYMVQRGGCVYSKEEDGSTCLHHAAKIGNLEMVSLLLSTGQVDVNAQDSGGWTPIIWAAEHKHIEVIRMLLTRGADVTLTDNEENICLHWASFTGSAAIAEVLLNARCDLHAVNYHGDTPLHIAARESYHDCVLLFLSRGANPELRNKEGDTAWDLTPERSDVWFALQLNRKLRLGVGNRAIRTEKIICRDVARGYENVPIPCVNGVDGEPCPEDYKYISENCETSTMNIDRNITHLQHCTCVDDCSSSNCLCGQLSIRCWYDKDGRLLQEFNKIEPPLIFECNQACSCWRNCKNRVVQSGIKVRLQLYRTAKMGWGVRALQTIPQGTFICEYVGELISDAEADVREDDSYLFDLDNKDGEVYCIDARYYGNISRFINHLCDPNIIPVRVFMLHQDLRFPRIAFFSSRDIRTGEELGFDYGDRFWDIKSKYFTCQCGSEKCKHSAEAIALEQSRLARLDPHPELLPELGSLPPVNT
Kind of experiment: Inhibition of G9a (unknown origin) by HMT assay.

Experiment [7] addresses T4, Histone-lysine N-methyltransferase EHMT2 (Homo sapiens) (UniProt Q96KQ7).
T4 sequence (whole entry): T3 sequence (Q96KQ7 whole entry)
Kind of experiment: Inhibition of G9a (unknown origin) at 10 uM by HMT assay.

The target in experiment [8] is T5, Histone-lysine N-methyltransferase EHMT1 (Homo sapiens, UniProt Q9H9B1).
T5 sequence (Q9H9B1 whole entry): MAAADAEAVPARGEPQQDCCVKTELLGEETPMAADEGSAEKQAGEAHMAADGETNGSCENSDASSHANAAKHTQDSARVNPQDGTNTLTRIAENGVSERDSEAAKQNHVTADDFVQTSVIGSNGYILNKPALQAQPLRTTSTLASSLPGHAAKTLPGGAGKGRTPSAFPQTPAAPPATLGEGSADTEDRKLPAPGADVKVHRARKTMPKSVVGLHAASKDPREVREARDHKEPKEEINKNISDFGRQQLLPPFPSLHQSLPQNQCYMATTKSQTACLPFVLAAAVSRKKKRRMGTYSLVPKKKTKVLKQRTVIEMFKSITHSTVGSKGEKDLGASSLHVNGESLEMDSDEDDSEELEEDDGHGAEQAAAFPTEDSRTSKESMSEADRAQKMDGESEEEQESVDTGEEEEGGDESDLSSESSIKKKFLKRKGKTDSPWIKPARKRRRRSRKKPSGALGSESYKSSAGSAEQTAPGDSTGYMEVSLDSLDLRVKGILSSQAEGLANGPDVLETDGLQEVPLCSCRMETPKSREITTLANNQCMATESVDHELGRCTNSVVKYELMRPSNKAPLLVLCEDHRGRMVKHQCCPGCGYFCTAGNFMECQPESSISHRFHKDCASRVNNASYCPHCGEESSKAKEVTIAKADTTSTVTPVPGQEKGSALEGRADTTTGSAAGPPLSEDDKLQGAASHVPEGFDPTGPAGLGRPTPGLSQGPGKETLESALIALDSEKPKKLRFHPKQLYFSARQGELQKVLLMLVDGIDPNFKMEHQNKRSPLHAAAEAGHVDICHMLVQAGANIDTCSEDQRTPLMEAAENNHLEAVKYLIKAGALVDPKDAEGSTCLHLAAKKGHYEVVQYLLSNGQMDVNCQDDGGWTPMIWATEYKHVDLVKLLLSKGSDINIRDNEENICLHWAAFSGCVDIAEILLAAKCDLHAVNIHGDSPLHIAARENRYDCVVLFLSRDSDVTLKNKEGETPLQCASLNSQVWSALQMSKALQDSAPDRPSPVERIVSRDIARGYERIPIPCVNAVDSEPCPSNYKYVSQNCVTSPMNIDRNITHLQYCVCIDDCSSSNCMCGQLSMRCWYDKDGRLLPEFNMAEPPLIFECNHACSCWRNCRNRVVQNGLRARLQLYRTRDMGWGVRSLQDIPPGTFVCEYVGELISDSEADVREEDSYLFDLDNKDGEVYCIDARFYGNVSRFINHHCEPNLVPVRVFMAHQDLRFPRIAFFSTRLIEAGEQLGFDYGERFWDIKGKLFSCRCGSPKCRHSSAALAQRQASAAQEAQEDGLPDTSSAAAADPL
Nature of the experiment: Inhibition of EHMT1 (unknown origin) by HMT assay.

Experiment [9] concerns the target T6, Histone-lysine N-methyltransferase EHMT1 (Homo sapiens) (UniProt Q9H9B1).
T6 sequence (whole entry): T5 sequence (Q9H9B1 whole entry)
Nature of the experiment: Inhibition of EHMT1 (unknown origin) at 10 uM by HMT assay.

The target in experiment [10] is T1, Histone-lysine N-methyltransferase KMT5C. Kind of experiment: Inhibition of SUV420H2 (unknown origin) by HMT assay.

Sequence of Histone-lysine N-methyltransferase 2A (Q03164 1-2718 limits assumed): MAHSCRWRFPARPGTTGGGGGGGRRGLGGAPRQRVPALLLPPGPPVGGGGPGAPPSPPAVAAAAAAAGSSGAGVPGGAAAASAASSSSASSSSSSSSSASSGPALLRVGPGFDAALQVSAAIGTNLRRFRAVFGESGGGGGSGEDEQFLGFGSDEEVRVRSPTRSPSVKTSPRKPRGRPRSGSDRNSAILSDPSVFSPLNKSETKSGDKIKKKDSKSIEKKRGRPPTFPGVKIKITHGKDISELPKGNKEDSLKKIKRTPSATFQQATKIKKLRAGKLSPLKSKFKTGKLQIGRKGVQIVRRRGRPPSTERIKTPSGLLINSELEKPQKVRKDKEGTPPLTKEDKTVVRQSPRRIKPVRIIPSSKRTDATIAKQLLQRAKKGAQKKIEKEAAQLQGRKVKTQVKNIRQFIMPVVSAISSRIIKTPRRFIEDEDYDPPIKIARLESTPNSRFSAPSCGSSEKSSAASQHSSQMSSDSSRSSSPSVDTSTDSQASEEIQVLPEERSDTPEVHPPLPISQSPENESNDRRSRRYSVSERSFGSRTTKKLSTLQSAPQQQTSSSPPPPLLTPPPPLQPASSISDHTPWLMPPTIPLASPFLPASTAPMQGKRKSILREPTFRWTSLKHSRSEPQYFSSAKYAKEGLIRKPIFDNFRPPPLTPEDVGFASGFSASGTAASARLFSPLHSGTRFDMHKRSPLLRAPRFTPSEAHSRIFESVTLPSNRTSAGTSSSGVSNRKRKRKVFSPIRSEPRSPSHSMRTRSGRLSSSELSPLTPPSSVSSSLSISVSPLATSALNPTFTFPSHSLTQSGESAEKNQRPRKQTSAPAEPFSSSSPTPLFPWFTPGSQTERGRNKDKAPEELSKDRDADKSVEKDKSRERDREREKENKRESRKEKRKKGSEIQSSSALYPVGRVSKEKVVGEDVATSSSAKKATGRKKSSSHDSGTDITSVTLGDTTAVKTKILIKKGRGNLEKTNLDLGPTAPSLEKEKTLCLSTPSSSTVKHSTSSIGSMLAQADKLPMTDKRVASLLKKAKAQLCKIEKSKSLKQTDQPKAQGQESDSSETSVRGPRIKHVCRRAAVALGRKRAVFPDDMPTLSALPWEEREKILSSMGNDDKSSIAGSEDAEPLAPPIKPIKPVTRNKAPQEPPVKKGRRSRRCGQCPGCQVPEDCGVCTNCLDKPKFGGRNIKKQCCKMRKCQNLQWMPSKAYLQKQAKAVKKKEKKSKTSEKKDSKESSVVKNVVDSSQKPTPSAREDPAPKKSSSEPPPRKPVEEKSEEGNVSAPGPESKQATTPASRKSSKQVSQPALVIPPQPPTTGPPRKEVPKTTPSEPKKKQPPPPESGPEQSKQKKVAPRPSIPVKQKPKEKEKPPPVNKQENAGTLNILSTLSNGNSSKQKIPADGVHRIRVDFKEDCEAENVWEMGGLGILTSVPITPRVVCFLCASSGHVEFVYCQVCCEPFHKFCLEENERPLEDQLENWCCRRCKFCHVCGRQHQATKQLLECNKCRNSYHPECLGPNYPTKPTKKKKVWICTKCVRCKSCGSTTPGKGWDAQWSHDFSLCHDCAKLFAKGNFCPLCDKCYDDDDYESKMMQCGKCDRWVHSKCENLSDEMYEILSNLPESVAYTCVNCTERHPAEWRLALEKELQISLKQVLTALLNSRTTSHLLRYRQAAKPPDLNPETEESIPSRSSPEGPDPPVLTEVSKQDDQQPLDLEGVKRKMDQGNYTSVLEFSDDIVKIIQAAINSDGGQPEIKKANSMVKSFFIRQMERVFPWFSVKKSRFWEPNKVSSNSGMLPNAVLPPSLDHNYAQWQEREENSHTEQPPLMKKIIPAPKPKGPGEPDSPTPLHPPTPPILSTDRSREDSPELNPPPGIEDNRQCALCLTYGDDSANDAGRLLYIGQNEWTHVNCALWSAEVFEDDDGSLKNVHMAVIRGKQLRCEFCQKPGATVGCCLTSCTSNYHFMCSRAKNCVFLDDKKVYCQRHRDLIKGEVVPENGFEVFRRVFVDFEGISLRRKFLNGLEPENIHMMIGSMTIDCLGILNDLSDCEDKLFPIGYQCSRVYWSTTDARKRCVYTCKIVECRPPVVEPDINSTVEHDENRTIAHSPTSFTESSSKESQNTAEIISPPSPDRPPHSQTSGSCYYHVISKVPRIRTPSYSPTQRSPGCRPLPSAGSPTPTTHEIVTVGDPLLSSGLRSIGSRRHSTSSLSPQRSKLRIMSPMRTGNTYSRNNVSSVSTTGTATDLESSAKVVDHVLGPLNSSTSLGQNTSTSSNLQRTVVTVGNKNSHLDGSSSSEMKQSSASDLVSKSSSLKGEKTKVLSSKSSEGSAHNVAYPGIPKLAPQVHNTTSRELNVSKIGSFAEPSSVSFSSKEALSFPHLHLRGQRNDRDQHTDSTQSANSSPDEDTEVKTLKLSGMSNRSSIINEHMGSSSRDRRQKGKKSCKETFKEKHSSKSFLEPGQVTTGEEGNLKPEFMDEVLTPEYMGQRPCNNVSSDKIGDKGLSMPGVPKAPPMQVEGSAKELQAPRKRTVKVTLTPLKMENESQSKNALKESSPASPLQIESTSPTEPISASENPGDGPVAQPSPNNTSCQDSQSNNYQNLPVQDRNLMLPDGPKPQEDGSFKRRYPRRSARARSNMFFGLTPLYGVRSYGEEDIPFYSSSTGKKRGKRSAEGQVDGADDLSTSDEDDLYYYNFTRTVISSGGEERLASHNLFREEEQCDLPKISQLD
Sequence of Histone-lysine N-methyltransferase 2A (Q03164 2719-3969 limits assumed): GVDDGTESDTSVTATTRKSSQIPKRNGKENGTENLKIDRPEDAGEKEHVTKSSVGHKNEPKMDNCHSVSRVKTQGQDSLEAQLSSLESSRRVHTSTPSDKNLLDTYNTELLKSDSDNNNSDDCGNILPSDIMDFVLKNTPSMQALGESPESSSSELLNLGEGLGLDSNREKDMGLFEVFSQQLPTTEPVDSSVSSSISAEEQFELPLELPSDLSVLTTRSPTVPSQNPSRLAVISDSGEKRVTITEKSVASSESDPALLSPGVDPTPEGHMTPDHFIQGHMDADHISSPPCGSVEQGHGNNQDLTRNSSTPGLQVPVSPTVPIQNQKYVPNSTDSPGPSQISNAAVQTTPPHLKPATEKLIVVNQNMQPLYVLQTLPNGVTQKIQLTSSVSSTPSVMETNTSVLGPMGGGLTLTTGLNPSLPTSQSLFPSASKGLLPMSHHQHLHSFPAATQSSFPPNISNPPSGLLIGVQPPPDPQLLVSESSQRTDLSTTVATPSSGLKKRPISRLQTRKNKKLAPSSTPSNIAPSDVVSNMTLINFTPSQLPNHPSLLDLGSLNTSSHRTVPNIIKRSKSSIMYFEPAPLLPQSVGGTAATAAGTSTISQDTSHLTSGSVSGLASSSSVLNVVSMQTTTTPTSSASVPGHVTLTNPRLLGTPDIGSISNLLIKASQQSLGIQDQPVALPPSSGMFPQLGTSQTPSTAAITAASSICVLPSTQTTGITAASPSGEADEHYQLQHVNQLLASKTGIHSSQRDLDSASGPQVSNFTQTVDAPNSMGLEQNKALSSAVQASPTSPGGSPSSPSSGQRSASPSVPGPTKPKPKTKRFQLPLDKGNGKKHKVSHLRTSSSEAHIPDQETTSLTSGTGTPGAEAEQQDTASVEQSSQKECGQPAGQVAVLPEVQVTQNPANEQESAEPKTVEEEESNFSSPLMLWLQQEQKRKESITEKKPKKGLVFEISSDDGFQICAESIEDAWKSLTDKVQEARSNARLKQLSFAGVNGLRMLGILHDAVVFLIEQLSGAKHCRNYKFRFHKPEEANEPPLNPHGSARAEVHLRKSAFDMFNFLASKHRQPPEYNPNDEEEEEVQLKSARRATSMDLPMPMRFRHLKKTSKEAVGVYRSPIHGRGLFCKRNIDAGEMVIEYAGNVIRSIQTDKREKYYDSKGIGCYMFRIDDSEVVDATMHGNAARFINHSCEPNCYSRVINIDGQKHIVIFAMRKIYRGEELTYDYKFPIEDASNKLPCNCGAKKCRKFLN

Take `Nc1ncnc2c1ncn2[C@@H]1O[C@H](CSCC[C@H](N)C(=O)NCc2cc(-c3ccccc3)[nH]n2)[C@@H](O)[C@H]1O`: the IC50 in experiment [1] was 18.5 µM; in experiment [4] it was over 100 µM; in experiment [6] it was over 100 µM; in experiment [8], over 30 µM; in [10] it was over 100 µM. Also, the inhibition entry in [2] and in experiment [3] was “inactive” in each case. The inhibition in [5] is 20%; in experiment [7], 20%; in experiment [9], 24%.

The IC50 is the point on the concentration scale where inhibition reaches its midpoint. A lower IC50 goes with greater potency in that assay. Usually inhibition stands for the drop in the measured response relative to a control, in per cent.
